Holding throughout (assay type): in vivo, mouse
Assay [1] has as its system heterozygous mutant mice carrying NR2F1 gene point mutation. The assay can be described thus: Self-grooming experiment after administration of ginkgolide A. The conditions noted are these: mutant (+/m) mice, gavage 2 mg/kg once a day, 7-8 weeks after birth, tested at 8 weeks; FIG. 12. The protocol:
The experimental mice were placed in a feeding cage with the bottom covered with feed and the height was no more than 1 cm. The time of grooming behavior in mice in 10 minutes was recorded. The grooming position includes face, head, neck, ears, etc. Subsequent self-grooming experiments were conducted to detect repetitive stereotyped behaviors. […] Ginkgolide A was administered to heterozygous mutant mice. The detailed administration scheme was as follows: the administration method was gavage treatment, the concentration of ginkgolide A was 2 mg/kg, the administration time is 7-8 weeks after the birth of mutant mice, and the administration frequency was once a day.

Assay [2] shares this test system. The assay can be described thus: Three-box experiment (sociability and social novelty test) after administration of ginkgolide A. The conditions noted are these: mutant (+/m) mice, gavage 2 mg/kg once a day, 7-8 weeks after birth, tested at 8 weeks; FIG. 11. The protocol:
a. Experimenter A entered the behavior room one hour before the experiment, took out a cage (four) of the experimental mice placed in the next room and placed them in the behavior room 1 hour. Meanwhile, the two mice needed in the experiment (note that the mice used here and the experimental mice cannot be in the same nest, and the sex should be the same) were placed in the behavior room 1 hour. Turn on the light to adapt it to the environment; b. Experimenter A started to clean the three boxes of equipment used in the experiment about half an hour before the experiment, sprayed the 30% alcohol on all parts of the three boxes, wiped gently with a white cloth, and then wiped dry with a new clean white cloth. Then two cages and two objects were washed. And the cloth used to block personnel and the experimental area was put up. c. At the same time, experimenter B began to debug the computer operating software: open the three-box experimental program and confirm whether the positions of the three boxes coincide with the position divided by the software. If not, please assist experimenter A in adjusting. […] After everything was ready, in the first round of the experiment, experimenter A put identical objects in areas 2 and 3, such as bottle caps. […] 5 min later, the experiment was ready to start. […] The experiment lasted 10 min, and the software recorded the time and distance of mice in each area. […]

Assay [3] has the same test system. The assay can be described thus: Elevated-plus maze experiment after administration of ginkgolide A. The conditions noted are these: mutant (+/m) mice, gavage 2 mg/kg once a day, 7-8 weeks after birth, tested at 8 weeks; FIG. 13. The protocol:
The related anxiety state of mice were investigated by using the characteristics that mice like to explore in the new environment and the contradictory behavior of fear of heights with open arms at heights. In order to increase the total number of mice entering the arm and avoid hiding in the closed arm, the animals were usually placed in an open environment for 5 minutes and then placed in the maze. Similarly, the mice were placed in a room with an elevated experimental device to adapt to the environment one hour before the start of the experiment, with the red light turned on, and the room temperature was kept at 25° C. At the beginning of the experiment, hold the mouse into the palm of the hand, place it in the middle of the cross facing the closed arm, and quickly leave this room. Then another person started recording and tracking the activity movement of the mouse in another room. In the process, the times of the experimental mouse entering the open arm and the closed arm was counted, and the time of staying in the open arm and the closed arm was counted respectively; after the whole process was recorded for 5 minutes for the experiment, the mice were gently stroked, and put back into the cage. The elevated-plus table was cleaned with 70% alcohol for the experiment of the next mouse. The elevated-plus experiment is mainly used to detect the anxiety behavior of mice. […]

Experimental findings from patent US12611394B2, “Use of ginkgolide a in the treatment of autism” (CENTER FOR EXCELLENCE IN MOLECULAR CELL SCIENCE, CHINESE …, priority 2019, dated 2026) are described below.

Turning to `C[C@@H]1C(=O)O[C@H]2C[C@@]34[C@H]5C[C@@H](C(C)(C)C)[C@]36[C@@H](OC(=O)[C@@H]6O)O[C@@]4(C(=O)O5)[C@]21O` [ginkgolide A], the self-grooming time entry in assay [1] is listed as “significantly reduced”. In addition, in assay [2], the “time of interaction with similar mice (sociability)” value is “significantly increased” and the “time of interaction with unfamiliar mice (social novelty)” value is “significantly increased”. Further, in assay [3], the “time to explore the open arm” value is reported as “increased significantly”.
